“And” between values parts separate entries of the source, which are not always exact repeats. Equal values may be shown once. “Also recorded” adds a separate entry of the source. Read-outs that look alike come from different tables or passages of the source.
Legend:
[1] = test system: aEPSCs in hippocampal neurons; experiment: Autaptic excitatory postsynaptic currents (aEPSCs) in hippocampal microcultures; format: cell-based, rat
[2] = target: T1, α4β3γ2S GABAA receptor (Rattus norvegicus, UniProt P18508+P28471+P63079); experiment: GABA-evoked currents through recombinant receptors in tsA 201 cells; format: cell-based; conditions: 30 μM flupirtine, normalized to 30 μM GABA in solvent
T1 construct: expressed in transfected cells; host or cells: tsA 201 cells
T1 sequence (P28471 36-552): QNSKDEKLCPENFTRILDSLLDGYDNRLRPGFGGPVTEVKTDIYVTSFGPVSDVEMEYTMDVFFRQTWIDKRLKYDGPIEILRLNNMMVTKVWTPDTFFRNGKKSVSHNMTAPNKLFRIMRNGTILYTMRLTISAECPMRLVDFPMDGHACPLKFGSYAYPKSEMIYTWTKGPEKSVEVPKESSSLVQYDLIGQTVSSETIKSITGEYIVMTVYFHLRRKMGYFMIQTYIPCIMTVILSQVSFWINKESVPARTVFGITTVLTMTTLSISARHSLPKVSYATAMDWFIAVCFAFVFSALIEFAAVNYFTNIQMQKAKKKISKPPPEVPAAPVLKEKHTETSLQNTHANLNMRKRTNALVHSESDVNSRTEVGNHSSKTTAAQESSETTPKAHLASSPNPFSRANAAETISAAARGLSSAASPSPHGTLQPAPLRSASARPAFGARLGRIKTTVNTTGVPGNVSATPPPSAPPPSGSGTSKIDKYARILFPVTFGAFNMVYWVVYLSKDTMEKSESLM
T1 sequence (P63079 26-473): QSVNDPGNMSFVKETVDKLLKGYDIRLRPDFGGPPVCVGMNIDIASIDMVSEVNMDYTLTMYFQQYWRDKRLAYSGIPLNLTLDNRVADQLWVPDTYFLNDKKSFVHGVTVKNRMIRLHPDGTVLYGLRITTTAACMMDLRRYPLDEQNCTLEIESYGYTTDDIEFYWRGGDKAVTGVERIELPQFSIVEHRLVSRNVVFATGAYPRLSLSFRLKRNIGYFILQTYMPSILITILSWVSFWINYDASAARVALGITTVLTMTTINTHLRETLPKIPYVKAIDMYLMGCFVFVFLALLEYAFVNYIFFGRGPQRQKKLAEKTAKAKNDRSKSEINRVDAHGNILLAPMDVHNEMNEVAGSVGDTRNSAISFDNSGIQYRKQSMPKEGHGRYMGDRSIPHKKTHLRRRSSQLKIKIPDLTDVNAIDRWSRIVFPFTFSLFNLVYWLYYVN
T1 sequence (P18508 39-466): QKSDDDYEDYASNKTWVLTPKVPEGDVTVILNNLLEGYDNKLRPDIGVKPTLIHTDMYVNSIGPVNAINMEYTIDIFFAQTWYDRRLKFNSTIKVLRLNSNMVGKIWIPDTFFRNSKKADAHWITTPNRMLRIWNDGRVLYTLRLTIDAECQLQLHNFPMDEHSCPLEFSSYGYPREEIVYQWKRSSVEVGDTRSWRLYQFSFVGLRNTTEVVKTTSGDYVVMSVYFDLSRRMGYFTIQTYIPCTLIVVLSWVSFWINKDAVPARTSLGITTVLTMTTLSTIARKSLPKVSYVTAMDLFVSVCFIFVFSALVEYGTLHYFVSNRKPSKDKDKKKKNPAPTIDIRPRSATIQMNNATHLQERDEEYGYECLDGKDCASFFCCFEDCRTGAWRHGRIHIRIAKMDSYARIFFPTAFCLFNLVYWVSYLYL

[3] = target: T2, δ-containing GABAA receptors in DH neurons (Rattus norvegicus, UniProt P18506); experiment: THIP-evoked currents in dorsal horn neurons; format: cell-based; conditions: 3 μM THIP; concentration-dependent; more pronounced than on GABA currents; at 10 μM larger than on K+ currents
T2 construct: endogenous in cells; host or cells: primary cultured rat dorsal horn neurons
T2 sequence (P18506 17-449 limits assumed): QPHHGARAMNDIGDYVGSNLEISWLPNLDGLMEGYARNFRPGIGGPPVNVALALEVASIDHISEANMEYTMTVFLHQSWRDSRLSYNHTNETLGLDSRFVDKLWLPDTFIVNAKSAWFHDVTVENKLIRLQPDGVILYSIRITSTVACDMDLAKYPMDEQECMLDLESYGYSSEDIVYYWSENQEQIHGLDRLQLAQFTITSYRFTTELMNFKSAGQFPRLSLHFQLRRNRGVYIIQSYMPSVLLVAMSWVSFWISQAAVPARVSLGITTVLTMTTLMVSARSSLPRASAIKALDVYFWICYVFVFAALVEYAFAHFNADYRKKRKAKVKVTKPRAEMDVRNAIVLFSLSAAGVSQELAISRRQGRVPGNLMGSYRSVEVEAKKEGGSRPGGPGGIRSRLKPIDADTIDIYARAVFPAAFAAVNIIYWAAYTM

[4] = target: T3, α3β3γ2S GABAA receptor (Rattus norvegicus, UniProt P18508+P20236+P63079); experiment: GABA-evoked currents through recombinant receptors in tsA 201 cells; format: cell-based; conditions: 30 μM flupirtine, normalized to 30 μM GABA in solvent, n.s. vs solvent
T3 construct: expressed in transfected cells; host or cells: tsA 201 cells
T3 sequence (P20236 29-493): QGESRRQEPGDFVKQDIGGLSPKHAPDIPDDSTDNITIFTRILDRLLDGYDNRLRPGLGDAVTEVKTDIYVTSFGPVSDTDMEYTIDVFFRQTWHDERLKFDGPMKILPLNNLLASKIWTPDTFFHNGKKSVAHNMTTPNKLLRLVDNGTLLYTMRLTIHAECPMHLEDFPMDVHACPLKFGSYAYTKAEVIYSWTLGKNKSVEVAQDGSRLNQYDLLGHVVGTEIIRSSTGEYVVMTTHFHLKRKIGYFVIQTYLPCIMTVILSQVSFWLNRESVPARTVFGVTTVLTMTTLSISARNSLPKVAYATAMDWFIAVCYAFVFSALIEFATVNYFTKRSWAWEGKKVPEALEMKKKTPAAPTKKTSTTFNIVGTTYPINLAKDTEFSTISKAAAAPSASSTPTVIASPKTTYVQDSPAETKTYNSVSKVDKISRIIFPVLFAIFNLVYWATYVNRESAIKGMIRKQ
T3 sequence (P63079 26-473): as the sequence (P63079 26-473) above
T3 sequence (P18508 39-466): as the sequence (P18508 39-466) above

[5] = target: T4, heteromeric Kv7.2/Kv7.3 channels (UniProt O43526+O88944); experiment: Currents through recombinant Kv7 channels in tsA 201 cells, ramp hyperpolarizations, amplitude at −30 mV; format: cell-based
T4 construct: expressed in transfected cells; host or cells: tsA 201 cells

[6] = target: T5, α1β2γ2S GABAA receptor (Rattus norvegicus, UniProt P18508+P62813+P63138); experiment: GABA-evoked currents through recombinant receptors in tsA 201 cells; format: cell-based
T5 construct: expressed in transfected cells; host or cells: tsA 201 cells
T5 sequence (P62813 28-455): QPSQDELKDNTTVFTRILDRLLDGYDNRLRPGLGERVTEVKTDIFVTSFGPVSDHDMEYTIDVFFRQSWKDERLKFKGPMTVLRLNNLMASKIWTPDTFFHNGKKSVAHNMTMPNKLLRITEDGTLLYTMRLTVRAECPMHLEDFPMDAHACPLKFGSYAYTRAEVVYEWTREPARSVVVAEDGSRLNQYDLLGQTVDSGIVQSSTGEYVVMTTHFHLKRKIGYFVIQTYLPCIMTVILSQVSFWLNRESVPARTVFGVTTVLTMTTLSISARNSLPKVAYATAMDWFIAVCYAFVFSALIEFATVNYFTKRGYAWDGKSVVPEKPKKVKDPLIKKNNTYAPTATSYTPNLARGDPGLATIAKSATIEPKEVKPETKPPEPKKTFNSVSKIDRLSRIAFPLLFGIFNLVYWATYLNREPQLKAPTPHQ
T5 sequence (P63138 25-474 limits assumed): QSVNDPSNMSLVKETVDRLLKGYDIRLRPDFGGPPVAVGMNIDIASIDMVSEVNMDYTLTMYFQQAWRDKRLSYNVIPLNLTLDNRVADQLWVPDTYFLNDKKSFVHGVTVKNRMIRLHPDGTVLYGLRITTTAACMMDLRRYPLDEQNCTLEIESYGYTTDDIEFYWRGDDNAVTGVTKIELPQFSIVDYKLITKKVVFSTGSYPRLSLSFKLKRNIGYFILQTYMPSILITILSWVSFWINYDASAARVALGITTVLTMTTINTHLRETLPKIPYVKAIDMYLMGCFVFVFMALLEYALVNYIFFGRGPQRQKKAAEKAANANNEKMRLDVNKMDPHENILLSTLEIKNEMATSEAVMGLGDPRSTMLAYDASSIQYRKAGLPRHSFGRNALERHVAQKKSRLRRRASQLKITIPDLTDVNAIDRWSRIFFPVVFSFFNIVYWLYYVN
T5 sequence (P18508 39-466): as the sequence (P18508 39-466) above

[7] = set-up: method as in Friedel and Fitton, 1993; conditions: ref Friedel and Fitton, 1993; cited from earlier work
[8] = Plasma pharmacokinetics and therapeutic plasma levels of flupirtine (literature); format: in vivo; conditions: after single doses
[9] = target: T6, δ-containing GABAA receptors in hippocampal neurons (Rattus norvegicus, UniProt P18506); experiment: THIP-evoked currents in cultured hippocampal neurons; format: cell-based; conditions: 30 μM flupirtine; 3 μM THIP; greater extent than 3 μM GABA in 5 mM penicillin
T6 construct: endogenous in cells; host or cells: primary cultured rat hippocampal neurons
T6 sequence (P18506 17-449 limits assumed): as the sequence (P18506 17-449 limits assumed) above

[10] = test system: Kv7 channels in hippocampal neurons; experiment: K+ currents in hippocampal neurons, ramp hyperpolarizations, amplitude at −30 mV; format: cell-based, rat
[11] = test system: native GABAA receptors in hippocampal neurons; experiment: GABA-evoked currents in cultured hippocampal neurons, perforated patch; format: cell-based, rat; conditions: for GABA Emax (normalized) in the presence of flupirtine (30 μM) / GABA Emax (normalized), solvent: Hippocampus neurons
[12] = target: T7, α1β2 GABAA receptor (Rattus norvegicus, UniProt P62813+P63138); experiment: GABA-evoked currents through recombinant receptors in tsA 201 cells; format: cell-based; conditions: 30 μM flupirtine, normalized to 30 μM GABA in solvent
T7 construct: expressed in transfected cells; host or cells: tsA 201 cells
T7 sequence (P62813 28-455): as the sequence (P62813 28-455) above
T7 sequence (P63138 25-474 limits assumed): as the sequence (P63138 25-474 limits assumed) above

[13] = target: T8, α5β3γ2S GABAA receptor (Rattus norvegicus, UniProt P18508+P19969+P63079); experiment: as above; format: cell-based; conditions: 30 μM flupirtine, normalized to 30 μM GABA in solvent
T8 construct: expressed in transfected cells; host or cells: tsA 201 cells
T8 sequence (P19969 32-464 limits assumed): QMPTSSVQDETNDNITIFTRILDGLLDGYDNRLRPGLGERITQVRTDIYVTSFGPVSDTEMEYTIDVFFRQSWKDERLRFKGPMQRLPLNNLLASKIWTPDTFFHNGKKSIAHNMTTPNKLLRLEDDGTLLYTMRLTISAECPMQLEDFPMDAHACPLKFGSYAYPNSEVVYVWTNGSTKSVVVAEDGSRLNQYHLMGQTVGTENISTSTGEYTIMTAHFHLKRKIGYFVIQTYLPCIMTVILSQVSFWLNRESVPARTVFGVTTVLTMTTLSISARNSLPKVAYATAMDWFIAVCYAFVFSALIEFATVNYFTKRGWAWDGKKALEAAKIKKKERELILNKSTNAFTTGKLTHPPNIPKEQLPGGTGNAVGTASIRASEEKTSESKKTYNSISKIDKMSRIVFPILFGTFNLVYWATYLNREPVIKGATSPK
T8 sequence (P63079 26-473): as the sequence (P63079 26-473) above
T8 sequence (P18508 39-466): as the sequence (P18508 39-466) above

[14] = target: T9, α4β3δ GABAA receptor (Rattus norvegicus, UniProt P18506+P28471+P63079); experiment: as above; format: cell-based
T9 construct: expressed in transfected cells; host or cells: tsA 201 cells
T9 sequence (P28471 36-552): as the sequence (P28471 36-552) above
T9 sequence (P63079 26-473): as the sequence (P63079 26-473) above
T9 sequence (P18506 17-449 limits assumed): as the sequence (P18506 17-449 limits assumed) above

[15] = test system: aIPSCs in hippocampal neurons; experiment: Autaptic inhibitory postsynaptic currents (aIPSCs) in hippocampal microcultures; format: cell-based, rat
[16] = target: T10, α2β2γ2S GABAA receptor (Rattus norvegicus, UniProt P18508+P23576+P63138); experiment: GABA-evoked currents through recombinant receptors in tsA 201 cells; format: cell-based; conditions: 30 μM flupirtine, normalized to 30 μM GABA in solvent, n.s. vs solvent
T10 construct: expressed in transfected cells; host or cells: tsA 201 cells
T10 sequence (P23576 29-451): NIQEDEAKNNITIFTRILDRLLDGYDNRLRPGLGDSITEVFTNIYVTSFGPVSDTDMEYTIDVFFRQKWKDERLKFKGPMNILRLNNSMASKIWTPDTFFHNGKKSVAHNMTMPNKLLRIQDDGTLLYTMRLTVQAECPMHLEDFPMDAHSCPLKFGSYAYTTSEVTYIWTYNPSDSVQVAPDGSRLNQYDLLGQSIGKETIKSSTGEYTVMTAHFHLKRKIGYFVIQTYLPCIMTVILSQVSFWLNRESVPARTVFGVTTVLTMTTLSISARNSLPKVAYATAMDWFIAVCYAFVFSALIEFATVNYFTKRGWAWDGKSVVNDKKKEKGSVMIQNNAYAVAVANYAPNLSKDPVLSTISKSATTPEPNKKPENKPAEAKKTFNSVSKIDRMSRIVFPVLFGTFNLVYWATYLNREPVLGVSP
T10 sequence (P63138 25-474 limits assumed): as the sequence (P63138 25-474 limits assumed) above
T10 sequence (P18508 39-466): as the sequence (P18508 39-466) above

[17] = cited from earlier work
[18] = target: T11, α1β2δ GABAA receptor (Rattus norvegicus, UniProt P18506+P62813+P63138); experiment: GABA-evoked currents through recombinant receptors in tsA 201 cells; format: cell-based
T11 construct: expressed in transfected cells; host or cells: tsA 201 cells
T11 sequence (P62813 28-455): as the sequence (P62813 28-455) above
T11 sequence (P63138 25-474 limits assumed): as the sequence (P63138 25-474 limits assumed) above
T11 sequence (P18506 17-449 limits assumed): as the sequence (P18506 17-449 limits assumed) above

[19] = test system: αβ and γ-containing recombinant GABAA receptors; format: cell-based, rat
[20] = test system: mIPSCs in hippocampal neurons; format: cell-based, rat
[21] = test system: Kv7 channels in DH neurons; experiment: K+ currents in dorsal horn neurons, ramp hyperpolarizations, amplitude at −30 mV; format: cell-based, rat; conditions: 3 and 10 μM flupirtine; quantified at −30 mV
[22] = test system: untransfected tsA 201 cells; experiment: Control recordings in untransfected tsA 201 cells; format: cell-based; conditions: control experiments
Description: Primary cultures of rat hippocampal and DH neurons were prepared as described previously (Klinger et al., [2012]). Micro-island cultures were obtained as detailed elsewhere (Dorostkar and Boehm, [2007]). For heterologous expression of GABAA receptors and Kv7 channels, tsA 201 cells (a subclone of HEK 293 cells) were cultured in DMEM containing 1 g · L^−1 glucose and 10% heat-inactivated fetal calf serum. Cells were transfected using ExGen 500 or TurboFect according to the manufacturer's recommendations, with a transfection ratio of 1:1 for αβ receptors, 1:1:8 for αβγ or αβδ receptors and 1:1 for heteromeric Kv7.2/Kv7.3 channels. The day after transfection, cells were seeded at a low density and used for patch-clamp recordings 24–48 h after transfection.

[23] = test system: Kv7 channels; set-up: method as in Klinger et al., 2012; conditions: ref Klinger et al., 2012; read-out: EC50 for the facilitation of Kv7 channels; cited from earlier work
[24] = test system: tonically active GABAA receptors in hippocampal neurons; format: cell-based, rat
[25] = target: T12, α4β3 GABAA receptor (Rattus norvegicus, UniProt P28471+P63079); experiment: GABA-evoked currents through recombinant receptors in tsA 201 cells; format: cell-based; conditions: 30 μM flupirtine, normalized to 30 μM GABA in solvent
T12 construct: expressed in transfected cells; host or cells: tsA 201 cells
T12 sequence (P28471 36-552): as the sequence (P28471 36-552) above
T12 sequence (P63079 26-473): as the sequence (P63079 26-473) above

[26] = test system: GABAA receptors in DH neurons; experiment: GABA-evoked currents in dorsal horn neurons; format: cell-based, rat; conditions: 3 μM GABA; concentration-dependent

## N#Cc1cc2nc(O)c(O)nc2cc1[N+](=O)[O-] [CNQX, cyano-2,3-dihydroxy-7-nitroquinoxaline]
[1]; 10 μM CNQX
  Effect on aEPSCs: blocked

## CCOC(=O)Nc1ccc(NCc2ccc(F)cc2)nc1N [Flupirtine]
[2]
  GABA Emax (normalized) in the presence of flupirtine (30 μM): 1.63 ± 0.05
[3]
  Effect of flupirtine on THIP-induced currents: enhanced
[4]
  GABA Emax (normalized) in the presence of flupirtine (30 μM): 1.93 ± 0.10 n.s.
[5]; 3 μM flupirtine
  Effect of flupirtine on currents through Kv7 channels at −30 mV: enhanced
[5]; 10 μM flupirtine
  Effect of flupirtine on currents through Kv7 channels at −30 mV: augmented
[6]; 10 μM flupirtine
  Effect of flupirtine on GABA-evoked currents: augmented
[6]; 30 μM flupirtine, normalized to 30 μM GABA in solvent
  GABA Emax (normalized) in the presence of flupirtine (30 μM): 0.85 ± 0.02
[7]
  Bound by plasma proteins: 80%
[8]
  Free plasma concentrations: 1000 to 2000 nM
[9]
  Effect of flupirtine on THIP-induced currents: augmented
[10]; 3 μM flupirtine
  Effect of flupirtine on K+ currents at −30 mV: enhanced
[10]; 10 μM flupirtine
  Effect of flupirtine on K+ currents at −30 mV: increased
[11]
  Maximal increase in GABA-evoked current amplitudes (factor): ~9 and > 8
[11]; 3 μM GABA in solvent, no penicillin
  Maximal increase in GABA-evoked current amplitudes (factor): 2.5 and < 3
[11]; 3 μM flupirtine, presence of penicillin
  Effect of flupirtine on GABA-evoked currents: enhanced
[11]; 10 μM flupirtine, absence of penicillin
  Effect of flupirtine on GABA-evoked currents: increased
[11]; 10 μM flupirtine, presence of penicillin, more pronounced than on the other currents
  Effect of flupirtine on GABA-evoked currents: increased
[11]; 30 μM flupirtine, normalized to 30 μM GABA in solvent, n.s. vs solvent
  GABA Emax (normalized) in the presence of flupirtine (30 μM): 1.25 ± 0.04 n.s.
[11]; 5 mM penicillin plus 30 μM flupirtine, normalized to 30 μM GABA in penicillin plus solvent
  GABA Emax (normalized) in the presence of flupirtine (30 μM): 1.46 ± 0.03
[12]
  GABA Emax (normalized) in the presence of flupirtine (30 μM): 0.71 ± 0.02
[13]
  GABA Emax (normalized) in the presence of flupirtine (30 μM): 0.94 ± 0.06
[14]
  EC50: 7 µM
[14]; α4β3δ, 1 μM GABA, fixed to the highest value determined
  Maximum of flupirtine effect on GABA-evoked currents (normalized to solvent): 1.5
[14]; α4β3δ, 3 μM flupirtine, 1 μM GABA
  Effect of flupirtine on GABA-evoked currents: potentiated
[14]; α4β3δ, 10 μM flupirtine
  Effect of flupirtine on GABA-evoked currents: augmented
[14]; α4β3δ, 30 μM flupirtine, normalized to 30 μM GABA in solvent
  GABA Emax (normalized) in the presence of flupirtine (30 μM): 1.55 ± 0.06
[15]
  Effect on aIPSC peak amplitudes: unaltered
[15]; Rattus norvegicus, Hippocampal neuron, n = 6, read-out: EC50 for the effect on aIPSC charge transfer
  EC50: 12 µM
[16]
  GABA Emax (normalized) in the presence of flupirtine (30 μM): 2.54 ± 0.14 n.s.
[1]; aIPSCs (former) vs aEPSCs (latter)
  Effect on aEPSCs: only the former ones were affected
[17]; four regularly spaced oral doses a day, ref Friedel and Fitton, 1993
  Accumulation: more than twofold
[17]; ref Friedel and Fitton, 1993
  Plasma half-life: about 10 h
[17]; single dose of 200 mg, ref Hummel et al., 1991
  Plasma concentrations: around 5 μM
[18]
  EC50: 108 µM
  Effect of flupirtine on GABA-evoked currents: potentiated; also recorded: augmented
  Maximum of flupirtine effect on GABA-evoked currents (normalized to solvent): 28.8
[18]; α1β2δ, 30 μM flupirtine, normalized to 30 μM GABA in solvent
  GABA Emax (normalized) in the presence of flupirtine (30 μM): 2.27 ± 0.06
[19]
  Reduction of maximal current amplitudes: 18 to 35%
[20]; 30 μM flupirtine, 0.5 μM tetrodotoxin plus 10 μM CNQX
  Effect on all characteristics of mIPSCs (amplitudes, rise times, half widths): remained unaltered
[21]
  Effect of flupirtine on K+ currents: enhanced
[22]
  Effect on currents in untransfected cells: failed to enhance any type of current
[23]
  EC50: 5 µM
[24]; 30 μM flupirtine, −70 mV
  Effect on holding currents: shifted towards more negative values
[24]; 3 to 30 μM flupirtine, concentration-dependent
  Effect on amplitudes of bicuculline-sensitive tonic currents: enhanced
[25]
  GABA Emax (normalized) in the presence of flupirtine (30 μM): 0.78 ± 0.02
[26]
  Effect of flupirtine on GABA-induced currents: enhanced

## NCCCC(=O)O [GABA]
[11]; 5 mM penicillin present, normalized to 30 μM GABA in penicillin plus solvent
  GABA Emax (normalized), solvent: 1.02 ± 0.02
[11]; solvent, normalized to current by 30 μM GABA in solvent
  GABA Emax (normalized), solvent: 1.33 ± 0.03

## Cc1ncc2n1-c1ccc(Cl)cc1C(c1ccccc1F)=NC2 [midazolam]
[20]; 3 μM midazolam
  Effect on half widths of mIPSCs: increased
  Effect on mIPSC amplitudes or rise times: without altering
[24]; 3 μM midazolam
  Effect on holding currents: slight shift of holding currents in an inward direction

## penicillin
[11]; 5 mM penicillin
  Effect on maximal amplitudes of GABA-evoked currents: significantly reduced
[20]; 5 mM penicillin
  Effect on mIPSCs: abolished
[24]; 5 mM penicillin
  Effect on holding currents: did not affect

— article PMC4621994 (British Journal of Pharmacology, 2015)
